Patent publication US20130143969A1 (THE OHIO STATE UNIVERSITY, priority 2010, published 2013)

Assays:
[1] = in vivo; details: for concentration at 10 min / concentration at 20 min / concentration at 30 min / concentration at 45 min / concentration at 60 min / concentration at 90 min / concentration at 120 min / concentration at 240 min / concentration at 480 min: CD2F1, mouse, in vivo; for AUC as % curcumin (relative percentage): oral 1.8 g/kg curcumin gel; for AUC: oral 1.8 g/kg curcumin gel in 66.7% PEG 600 + 33.3% Cremophor EL
From the text: Extracts of bio-matrices were subjected to HPLC mass spectrometric analysis.

[2] = test system: p15^INK4B promoter region; assay: DNA methylation analysis of the p15INK4B promoter region (LC-MS/MS); assay type: cell-based; details: MV4-11 cells, decitabine 2.5 μM, 72 hours
Protocol: Genomic DNA isolated from MV4-11 cells was treated with bisulfite using the Epi methylation Kit (Qiagen, Minneapolis, Minn.) according to the instruction from the manufacturer and followed by PCR amplification as follows. The sequences of p15^INK4B primers were: forward 5′-GGGAGGGTAATGAAGTTGAGTTTA-3′ (SEQ ID NO. 1), and reverse 5′-ACCCTAAAACCCCAACTACCTAAAT-3′ (SEQ ID NO. 2). PCR amplifications were performed as follows: 95° C. for 5.5 min, 55° C. for 30s for 5 cycles, and 52° C. for 30 s for 38 cycles, 72° C. for 30s for 38 cycles, with a final step at 72° C. for 1 min. PCRs were carried out in a 100 μl volume containing 10 μl of buffer (10×), 2 μL of each primer (10 μM), 2 μL of (10 mM) dNTPs, 2 U of Platinum Taq DNA polymerase (Invitrogen, Carlsbad, Calif.), 70.6 μL ddH2O and 10 μL of bisulfite treated DNA in a GeneAmp 9700 thermal cycler (Perkin-Elmer, Norwalk, Conn.). PCR products were purified using QIAquick columns and eluted in water. A 500 ng aliquot of the PCR product was incubated with 25 UM. […] Fully methylated PCR products were purified using the QIAquick PCR Purification kit (Qiagen, Minneapolis, Minn.), according to the manufacturer's instructions and 200 ng of the purified DNA was hydrolyzed and the concentrations of 5mdC and 2dC in the hydrolysate were measured by LC-MS/MS using the conditions as described previously.

[3] = test system: p15^INK4B; assay: Quantitative RT-PCR of p15INK4B mRNA in leukemia cells; assay type: cell-based; details: MV4-11 cells, decitabine 2.5 μM, 72 hours
Protocol: (§1) Cell Cycle and Apoptosis Analysis: MV4-11, ML-1, HL-60 and K562 leukemia cell lines were cultured in RPMI medium (VWR International, Inc., West Chester, Pa.) supplemented with 10% fetal bovine serum (Invitrogen, Carlsbad, Calif.) and 1% (v/v) penicillin/streptomycin (Invitrogen Life Technologies; Carlsbad, Calif.) antibiotic solution at 37° C. in an incubator under 5% CO2 atmosphere. For the ex-vivo studies, mononuclear cells obtained from bone marrow (BM) of patient with AML were prepared by Ficoll-Hypaque (Nygaard) gradient centrifugation and cultured with serum-free expansion medium (SFEM) (StemCell technologies, Vancouver, BC) supplemented with GM-CSF (50 ng/ml), IL-3 (20 ng/ml), IL-6 (20 ng/ml) and SCF ([…]). […] The cell cycle and apoptosis of MV4-11 cells was analyzed on a BD FACS Calibur (Beckman Coulter, Fullerton, Calif.) according to the standard protocol provided by the manufacturer.
Quantitative RT-PCR was used to quantify the mRNA levels of DNMT1, DNMT3a, DNMT3b, p15INK4B and p21. Total RNA was extracted with Trizol reagent (Invitrogen, Carlsbad, Calif.) and reverse transcribed by reverse transcriptase (Invitrogen). Quantitative real-time PCR reactions were performed in triplicate using Taqman gene expression assay (Applied Biosystems) with an ABI prism 7700 detector (Applied Biosystems). The target gene values were normalized to the values of internal control GAPDH or 18 S, and expressed as relative percent change (100×2^(˜ΔΔCt)) over non-treated samples.

[4] = test system: MV4-11 cells; assay: Cell cycle distribution by flow cytometry; assay type: cell-based; details: 2.5 μM decitabine
Protocol: as §1

[5] = mouse, oral 1.8 g/kg curcumin in 66.7% PEG 600 + 33.3% Cremophor EL, 1440 min

Row | Compound | concentration at 10 min [1] [ng/mL] | concentration at 20 min [1] [ng/mL] | concentration at 30 min [1] [ng/mL] | concentration at 45 min [1] [ng/mL] | concentration at 60 min [1] [ng/mL] | concentration at 90 min [1] [ng/mL] | concentration at 120 min [1] [ng/mL] | concentration at 240 min [1] [ng/mL] | concentration at 480 min [1] [ng/mL] | AUC as % curcumin (relative percentage) ([1]; mouse) [%] | AUC ([1]; mouse) [µM·min] | plasma level [1, 5] [ng/mL] | plasma level ([1]; same dosing, 10 min) [ng/mL] | plasma level ([1]; same dosing, 20 min) [ng/mL] | plasma level ([1]; same dosing, 30 min) [ng/mL] | plasma level ([1]; same dosing, 45 min) [ng/mL] | plasma level ([1]; same dosing, 60 min) [ng/mL] | plasma level ([1]; same dosing, 90 min) [ng/mL] | plasma level ([1]; same dosing, 120 min) [ng/mL] | plasma level ([1]; same dosing, 480 min) [ng/mL] | other results
1 | O=C(/C=C/c1ccc(O)cc1)CC(=O)/C=C/c1ccc(O)cc1 [BDMO, bisdesmethoxycurcumin] | 65.7 | 115 | 51.4 | 66.9 | 37.3 | 11.1 | 15.4 | 34.5 | 10.9 | – | – | – | – | – | – | – | – | – | – | – | –
2 | COc1cc(/C=C/C(O)=C/C(=O)/C=C/c2ccc(O)cc2)ccc1O [DMO, desmethoxycurcumin] | 148 | 224 | 108 | 118 | 76.5 | 29.1 | 39.5 | 40.4 | 15.4 | – | – | – | – | – | – | – | – | – | – | – | –
3 | COc1cc(/C=C/C(=O)CC(=O)/C=C/c2ccc(O[C@@H]3O[C@H](C(=O)O)[C@@H](O)[C@H](O)[C@H]3O)c(OC)c2)ccc1O [GLU, curcumin O-monoglucuronide] | – | – | – | – | – | – | – | – | – | 382.0 | 1863.2 | 24.2129 | 3083.366 | 4428.71 | 5469.386 | 2539.161 | 2057.704 | 1336.072 | 1070.25 | 716.5084 | –
4 | COc1cc(CCC(=O)CC(=O)CCc2ccc(O)c(OC)c2)ccc1O [THC, tetrahydrocurcumin] | – | – | – | – | – | – | – | – | – | 7.9 | 38.29 | 2.239 | 112.6977 | 238.2446 | 219.0996 | 62.5 | 39.23 | 6.038 | 8.631 | 4.672 | plasma level ([1]; same dosing, 240 min): 8.173 ng/mL
5 | Nc1ncn([C@H]2C[C@H](O)[C@@H](CO)O2)c(=O)n1 [decitabine, Decitabine] | – | – | – | – | – | – | – | – | – | – | – | – | – | – | – | – | – | – | – | – | decrease of p15INK4B promoter methylation level [2]: ~25%; increase of p15INK4B expression level [3]: ~4 fold; cell population in G0/G1 phase [4]: 49.4%; cell population in G2/M phase [4]: 11.7%; cell population in S phase [4]: 26.2%; cell population in SubG1 phase [4]: 13.2%
6 | curcumin O-sulfate | – | – | – | – | – | – | – | – | – | 3.3 | 16.2 | 0 | 29.44 | 54.83 | 43.06 | 27.51 | 18.75 | 8.637 | 7.752 | 4.05 | plasma level ([1]; same dosing, 240 min): 9.949 ng/mL
